Here are results for four compounds from patent US20240067693A1, “POLYPEPTIDES AND USES THEREOF” (MEDIMMUNE LIMITED, priority 2020, published 2024).

SMILES strings stand for the structures. Numbered stars: 1 amine (or outer) side, 2 acyl side, 3 side chain; on linkers, the order of the positions; unused ones are H or OH. Bridge positions count the residues as written; N and C are the ends. Square brackets hold non-standard residues; d marks the D form. Side chains are listed from the residue outwards. Peptide text beside a SMILES is read from it. * marks the point of attachment. C18 diacid = O=C(O)CCCCCCCCCCCCCCCCC(=O)*; γGlu = O=C(O)[C@H](CCC(=O)[*:2])N[*:1]; Aib = CC(C)(N)C(=O)O

The target of assay [1] is T1, human calcitonin receptor (hCTR) (Homo sapiens, UniProt P30988).
T1 construct: expressed in transfected cells
T1 sequence (P30988 25-474): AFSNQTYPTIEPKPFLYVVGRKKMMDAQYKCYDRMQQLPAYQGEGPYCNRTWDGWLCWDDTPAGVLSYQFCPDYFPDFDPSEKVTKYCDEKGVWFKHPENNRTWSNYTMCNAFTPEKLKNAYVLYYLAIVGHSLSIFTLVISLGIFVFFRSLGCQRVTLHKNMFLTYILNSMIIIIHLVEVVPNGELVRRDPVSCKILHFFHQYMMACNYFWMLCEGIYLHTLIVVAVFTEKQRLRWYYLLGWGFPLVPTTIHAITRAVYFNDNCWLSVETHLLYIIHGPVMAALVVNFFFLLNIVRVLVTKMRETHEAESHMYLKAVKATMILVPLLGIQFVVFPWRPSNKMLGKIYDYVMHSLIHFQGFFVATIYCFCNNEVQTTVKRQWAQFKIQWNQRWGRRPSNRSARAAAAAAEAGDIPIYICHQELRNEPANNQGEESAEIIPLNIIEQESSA
Kind of assay: cAMP production in 1321N1 cells with stable recombinant expression of human calcitonin receptor (hCTR). Conditions: cAMP, 1321N1 cells, assay buffer with 0.1% BSA; read-out: EC50 (pM) hCTR. The format is cell-based. In short, it runs like this: (§1)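 Thawed cells in HBSS/0.1% BSA/25 mM HEPES pH 7.4 with 0.5 mM IBMX were incubated with peptides 30 min at room temperature; cAMP read by HTRF. EC50 from 4-parameter fit of % activation relative to maximal amylin or calcitonin effect.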
For orientation: cAMP levels reflect the balance of adenylyl cyclase and phosphodiesterase activity.

Assay [2] addresses T2, human amylin receptor (calcitonin receptor co-expressed with receptor activity modifying protein, RAMP3) (hAMYR3) (Homo sapiens, UniProt O60896+P30988).
T2 construct: expressed in transfected cells
T2 sequence (P30988 25-474): T1 sequence (P30988 25-474)
T2 sequence (O60896 24-148 partner): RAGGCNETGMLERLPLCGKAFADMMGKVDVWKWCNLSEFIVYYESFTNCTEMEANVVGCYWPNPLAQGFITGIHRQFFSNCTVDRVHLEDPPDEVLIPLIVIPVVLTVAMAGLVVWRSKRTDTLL
Kind of assay: cAMP production in 1321N1 cells with stable recombinant expression of human amylin receptor (hAMYR3). The format is cell-based. Conditions: for Ratio (selectivity hAMYR vs hCTR, ratio of EC50 values at the two receptors): EC50 hCTR / EC50 hAMYR3; for EC50: cAMP, 1321N1 cells, assay buffer with 0.1% BSA, read-out: EC50 (pM) hAMYR3. In short, it runs like this:
as §1

Turning to `CC[C@H](C)[C@H](NC(=O)[C@@H]1CCCN1C(=O)CNC(=O)[C@H](Cc1ccccc1)NC(=O)[C@H](CC(N)=O)NC(=O)C(C)(C)NC(=O)[C@H](CO)NC(=O)[C@H](CO)NC(=O)[C@H](Cc1c[nH]cn1)NC(=O)[C@H](CO)NC(=O)[C@H](CC(C)C)NC(=O)[C@H](Cc1ccccc1)NC(=O)[C@H](CC(N)=O)NC(=O)[C@H](C)NC(=O)[C@H](CC(C)C)NC(=O)[C@H](CCCNC(=N)N)NC(=O)[C@H](CCC(N)=O)NC(=O)[C@@H](NC(=O)[C@H](C)NC(=O)[C@@H]1CSSC[C@H](NC(=O)[C@H](CCCCN)NC(=O)[C@@H](N)CCCCNC(=O)CC[C@H](NC(=O)CCCCCCCCCCCCCCCCC(=O)O)C(=O)O)C(=O)N[C@@H](CC(N)=O)C(=O)N[C@@H]([C@@H](C)O)C(=O)N[C@@H](C)C(=O)N[C@@H]([C@@H](C)O)C(=O)N1)[C@@H](C)O)C(=O)N[C@@H](CC(C)C)C(=O)N1CCC[C@H]1C(=O)N1CCC[C@H]1C(=O)N[C@H](C(=O)N[C@@H](CC(N)=O)C(=O)N[C@H](C(=O)NCC(=O)N[C@@H](CO)C(=O)N[C@@H](CC(N)=O)C(=O)N[C@H](C(=O)N[C@@H](Cc1ccc(O)cc1)C(N)=O)[C@@H](C)O)C(C)C)[C@@H](C)O` [Peptide 37, K(γE-C18diacid)K[CNTATC]ATQRLANFLSHSS(Aib)NFGPILPPTNVGSNTY-amide] (H-K([γGlu-C18 diacid])KCNTATCATQRLANFLSHSS[Aib]NFGPILPPTNVGSNTY-NH2; disulfide 3-8), the EC50 in assay [1] worked out at 1960 pM. In assay [2], the “Ratio (selectivity hAMYR vs hCTR, ratio of EC50 values at the two receptors)” value worked out at 8 and the EC50 came to 249 pM.

Turning to `CC[C@H](C)[C@H](NC(=O)[C@@H]1CCCN1C(=O)CNC(=O)[C@H](Cc1ccccc1)NC(=O)[C@H](CC(N)=O)NC(=O)C(C)(C)NC(=O)[C@H](CO)NC(=O)[C@H](CO)NC(=O)[C@H](Cc1c[nH]cn1)NC(=O)[C@@H](NC(=O)[C@H](CC(C)C)NC(=O)[C@H](Cc1ccccc1)NC(=O)[C@H](CC(N)=O)NC(=O)[C@H](C)NC(=O)[C@H](CC(C)C)NC(=O)[C@H](CCCNC(=N)N)NC(=O)[C@H](CCC(N)=O)NC(=O)[C@@H](NC(=O)[C@H](C)NC(=O)[C@@H]1CSSC[C@H](NC(=O)[C@H](CCCCN)NC(=O)[C@@H](N)CCCCNC(=O)CC[C@H](NC(=O)CCCCCCCCCCCCCCCCC(=O)O)C(=O)O)C(=O)N[C@@H](CC(N)=O)C(=O)N[C@@H]([C@@H](C)O)C(=O)N[C@@H](C)C(=O)N[C@@H]([C@@H](C)O)C(=O)N1)[C@@H](C)O)C(C)C)C(=O)N[C@@H](CC(C)C)C(=O)N1CCC[C@H]1C(=O)N1CCC[C@H]1C(=O)N[C@H](C(=O)N[C@@H](CC(N)=O)C(=O)N[C@H](C(=O)NCC(=O)N[C@@H](CO)C(=O)N[C@@H](CCCNC(=N)N)C(=O)N[C@H](C(=O)N[C@@H](Cc1ccc(O)cc1)C(N)=O)[C@@H](C)O)C(C)C)[C@@H](C)O` [Peptide 73, K(γE-C18diacid)K[CNTATC]ATQRLANFLVHSS(Aib)NFGPILPPTNVGSRTY-amide] (H-K([γGlu-C18 diacid])KCNTATCATQRLANFLVHSS[Aib]NFGPILPPTNVGSRTY-NH2; disulfide 3-8; N-terminus assumed), the 50% effective concentration (EC50) in assay [1] amounted to 1820 pM; in assay [2], 256 pM. Further, in assay [2], the “Ratio (selectivity hAMYR vs hCTR, ratio of EC50 values at the two receptors)” value was 7.

For the compound `CC[C@H](C)[C@H](NC(=O)[C@@H]1CCCN1C(=O)CNC(=O)[C@H](Cc1ccccc1)NC(=O)[C@H](CC(N)=O)NC(=O)C(C)(C)NC(=O)[C@H](CO)NC(=O)[C@H](CO)NC(=O)[C@H](Cc1c[nH]cn1)NC(=O)[C@@H](NC(=O)[C@H](CC(C)C)NC(=O)[C@H](Cc1ccccc1)NC(=O)[C@H](CC(N)=O)NC(=O)[C@H](C)NC(=O)[C@H](CC(C)C)NC(=O)[C@H](CCCNC(=N)N)NC(=O)[C@H](CCC(N)=O)NC(=O)[C@@H](NC(=O)[C@H](C)NC(=O)[C@@H]1CSSC[C@H](NC(=O)[C@H](CCCCN)NC(=O)[C@@H](N)CCCCNC(=O)CC[C@H](NC(=O)CCCCCCCCCCCCCCCCC(=O)O)C(=O)O)C(=O)N[C@@H](CC(N)=O)C(=O)N[C@@H]([C@@H](C)O)C(=O)N[C@@H](C)C(=O)N[C@@H]([C@@H](C)O)C(=O)N1)[C@@H](C)O)C(C)C)C(=O)N[C@@H](CC(C)C)C(=O)N1CCC[C@H]1C(=O)N1CCC[C@H]1C(=O)N[C@H](C(=O)N[C@@H](CC(N)=O)C(=O)N[C@H](C(=O)NCC(=O)N[C@@H](CO)C(=O)N[C@@H](CC(N)=O)C(=O)N[C@H](C(=O)N1CCC[C@H]1C(N)=O)[C@@H](C)O)C(C)C)[C@@H](C)O` [Peptide 58, K(γE-C18diacid)K[CNTATC]ATQRLANFLVHSS(Aib)NFGPILPPTNVGSNTP-amide] (H-K([γGlu-C18 diacid])KCNTATCATQRLANFLVHSS[Aib]NFGPILPPTNVGSNTP-NH2; disulfide 3-8), the concentration for a half-maximal effect (EC50) in assay [1] was found to be 65 pM. Further, in assay [2], the “Ratio (selectivity hAMYR vs hCTR, ratio of EC50 values at the two receptors)” value was 1 and the 50% effective concentration (EC50) came to 71 pM.

Consider `CC[C@H](C)[C@H](NC(=O)[C@@H]1CCCN1C(=O)CNC(=O)[C@H](Cc1ccccc1)NC(=O)[C@H](CC(N)=O)NC(=O)C(C)(C)NC(=O)[C@H](CO)NC(=O)[C@H](CO)NC(=O)[C@H](Cc1c[nH]cn1)NC(=O)C(C)(C)NC(=O)[C@H](CC(C)C)NC(=O)[C@H](Cc1ccccc1)NC(=O)[C@H](Cc1c[nH]cn1)NC(=O)[C@H](C)NC(=O)[C@H](CC(C)C)NC(=O)[C@H](CCCNC(=N)N)NC(=O)[C@H](CCC(N)=O)NC(=O)[C@@H](NC(=O)[C@H](C)NC(=O)[C@@H]1CSSC[C@H](NC(=O)[C@H](CCCCN)NC(=O)[C@@H](N)CCCCNC(=O)CC[C@H](NC(=O)CCCCCCCCCCCCCCCCC(=O)O)C(=O)O)C(=O)N[C@@H](CC(N)=O)C(=O)N[C@@H]([C@@H](C)O)C(=O)N[C@@H](C)C(=O)N[C@@H]([C@@H](C)O)C(=O)N1)[C@@H](C)O)C(=O)N[C@@H](CC(C)C)C(=O)N1CCC[C@H]1C(=O)N1CCC[C@H]1C(=O)N[C@H](C(=O)N[C@@H](CCC(=O)O)C(=O)N[C@H](C(=O)NCC(=O)N[C@@H](CO)C(=O)N[C@@H](CC(N)=O)C(=O)N[C@H](C(=O)N[C@@H](Cc1ccc(O)cc1)C(N)=O)[C@@H](C)O)C(C)C)[C@@H](C)O` [Peptide 86, K(γE-C18diacid)K[CNTATC]ATQRLAHFL(Aib)HSS(Aib)NFGPILPPTEVGSNTY-amide] (H-K([γGlu-C18 diacid])KCNTATCATQRLAHFL[Aib]HSS[Aib]NFGPILPPTEVGSNTY-NH2; disulfide 3-8), for which the EC50 in assay [1] was 311 pM. In assay [2], the “Ratio (selectivity hAMYR vs hCTR, ratio of EC50 values at the two receptors)” value was determined as 3 and the EC50 was 119 pM.

As a reminder, the EC50 is the midpoint of the concentration-response curve.
